Test results as given in patent publication US9821067B2, “Lipopeptides for delivery of nucleic acids” (Marina Biotech, Inc., priority 2007, dated 2017).
Primed or numbered codes have the meaning given here. No end group written: not given here. C20 = lipophilic group with a 20-carbon chain; PEG27′ = polyethylene glycol, 27 units; cysteamide = C-terminal cysteamide; C16 = N-terminal C16 lipid; C18 = N-terminal C18 lipid; C18″ = C18 lipid

Columns and labels:
[1] = tested on: Cyclophilin B (PPIB) gene expression in A549 cells; experiment: In vitro assay for PPIB gene expression knockdown in A549 cells; assay type: cell-based, human; conditions: for % KD (vs QNeg) A549/PPIB: A549 cells, PPIB mRNA by RT-PCR 24 hours after transfection; for knockdown in the A549/PPIB assay: as compared to both Qneg and vehicle (data for vehicle not shown)
Method: Cyclophilin B (PPIB) gene expression knockdown was measured in A549 human alveolar basal epithelial cells. For PPIB gene knockdown measurements, A549 cells were transfected with an interfering RNA formulation, total RNA prepared 24 hours after transfection, and PPIB mRNA assayed by RT-PCR. QRT-PCR of 36B4 (acidic ribosomal phosphoprotein PO) mRNA expression was performed for normalization.
Confluency was about 50% at the time of transfection.
For PPIB gene knockdown cells were lysed and RNA prepared (Invisorb RNA Cell HTS 96-Kit/C, Invitek, Berlin, or RNeasy 96 Kit, Qiagen). Quantitative RT-PCR was performed using One-Step qRT-PCR kit (Invitrogen) on a DNA Engine Opticon2 thermal cycler (BioRad).

[2] = tested on: LacZ gene (bacterial galactosidase) in 9L/LacZ cells; experiment: In vitro assay for LacZ gene expression knockdown in 9L cells
Method: 9L/LacZ is a rat gliosarcoma cell line stably expressing the LacZ gene that encodes bacterial galactosidase. LacZ gene knockdown measurements can be used as a primary activity-based in vitro assay for interfering RNA delivery formulations.
For LacZ gene knockdown measurements, 9L/LacZ cells were transfected with an RNAi formulation, and a β-galactosidase assay was performed on cells harvested at day 3 post transfection. An additional assay was performed to quantify protein concentration.
9L/LacZ cells were plated at 8000 cells/well (96-well) and incubated overnight in medium. Confluency was about 15-20% at the time of transfection. Transfection complex was prepared by adding an interfering RNA to OptiMEM™ medium and vortexing, separately adding a delivery formulation to OptiMEM™ medium and vortexing, and finally mixing the interfering RNA in medium with the delivery formulation in medium to make the transfection complex. The medium for incubated cells was replaced with fresh no-serum media (OptiMEM™ without serum) and transfection complex was added to each well. Cells were incubated 5 hrs, then after the addition of 100 microliters complete medium (DMEM plus 10% fetal bovine serum) were incubated overnight at 37° C. and 5% CO2. The next day, 24 hours after transfection, the medium was changed to fresh complete medium and the cells were incubated another 48 hrs at 37° C. and 5% CO2.
For LacZ gene knockdown, the harvested 9L/LacZ cells were washed in PBS, lysed in M-PER™ Reagent (Pierce), and incubated at room temperature for 15 minutes. Lysate was taken from each well for protein assay with a Micro BCA kit (Pierce, Thermo Fisher Scientific) and β-gal assay with All-in-One™ β-Galactosidase Assay Reagent (Pierce).

[3] = N:P ratio 2, β-galactosidase assay day 3 post transfection
[4] = N:P ratio 4, β-galactosidase assay day 3 post transfection

Row | Substance | % KD (vs QNeg) A549/PPIB ([1]; N:P ratio 2) | % KD (vs QNeg) A549/PPIB ([1]; N:P ratio 4) | % KD (vs QNeg) L/9lacZ [2, 3] | % KD (vs QNeg) L/9lacZ [2, 4] | knockdown in the A549/PPIB assay [1]
1 | (C16)-HHHHHKHHHKKKHKHKKK-Cysteamide (C16-HHHHHKHHHKKKHKHKKK-cysteamide) | 14.7% | −19.8% | 12.0% | 12.4% | 
2 | (C18)-HHHHHKHHHKKKHKHKKK-cysteamide (C18-HHHHHKHHHKKKHKHKKK-cysteamide) | 25.5% | 21.6% | −11.3% | −19.4% | significant knockdown
3 | (C18)-HHHHRRRRRRRR-Cysteamide (C18-HHHHRRRRRRRR-cysteamide) | 15.3% |  | −0.8% |  | 
4 | (C18)-PEG27-HHHHHHHHRRRRRRRR-amide ({C18″-PEG27′}-HHHHHHHHRRRRRRRR-NH2) | 30.6% | 7.4% | 9.2% | −16.1% | 
5 | (C20)-(H)8(R)8(H)8K-NH-(C20) (C20-HHHHHHHHRRRRRRRRHHHHHHHHK(C20)) | 29.7% | 65.8% | 60.1% | 57.5% | significant knockdown
6 | Ac-GALFLAFLAAALSLMGLWSQPKKKRKV-Cysteamide (Ac-GALFLAFLAAALSLMGLWSQPKKKRKV-cysteamide) | 20.5% |  | 29.1% |  | 
7 | Ac-GALFLAFLAAALSLMGLWSQPKSKRKV-Cysteamide (Ac-GALFLAFLAAALSLMGLWSQPKSKRKV-cysteamide) | 15.5% | 16.0% | 29.5% | −9.3% | 
8 | Ac-GALFLGFLGAAGSTMGAWSQPKSKRKV-amide (Ac-GALFLGFLGAAGSTMGAWSQPKSKRKV-NH2) | −8.1% | −3.7% | −0.4% | −1.6% | 
9 | Ac-LIRLWSHLIHIWFQNRRLKWKKK-amide (Ac-LIRLWSHLIHIWFQNRRLKWKKK-NH2) | 8.7% | −28.8% | −19.9% | −4.5% | 
